# Experimental data taken from patent publication US20240199576A1, “NOVEL CYCLOPENTA[C]PYRROL NEGATIVE ALLOSTERIC MODULATORS OF NR2B” (Novartis AG, priority 2021, published 2024).
# Legend:
# NR2B = NR2B (Rattus norvegicus (Rat), UniProt Q00960); experiment: NR2B rat cortical neuron calcium influx assay; assay type: cell-based; details: rat cortical neurons, glutamate and glycine stimulated calcium influx, 2 hours compound incubation
# Description: Example 1: NR2B Rat Cortical Neuron Calcium Influx Assay Protocol
# Embryonic day 18 timed pregnant Sprague Dawley rats were euthanized according to Institutional Animal Care and Use Committee (IACUC) protocol. After cutting medially through the skin and exposing the uterus and embryos, fetuses were removed and placed in cold Hibernate medium. Each embryo's brain was extracted and cerebral cortices were isolated by removing the midbrain and meninges. The dissected cortices were then dissociated into the neurons using papain dissociation system (Worthington Biochemical Corporation) according the manufacturer's protocol.
# Dissociated neurons were counted and plated into 384-well poly-D-lysine coated plates (Corning® BioCoat™) at a density of 20,000 cells/well in 30 μL of Neurobasal/B27 complete medium. Neurons were cultured at 37° C. for 2 days. On the assay day, medium was removed and cells were incubated with 20 μL/well of calcium dye (Calcium 6 Assay Kit, Molecular Devices) suspended in HBSS with 1.8 mM Ca^2+ (Ca-HBSS) according to the manufacturer's instruction.
# Compounds of interest from 10 mM stock were serially diluted into 3× of desired concentrations in 1.8 mM Ca-HBSS, and 10 μL were added to the wells. Compound and the neurons were incubated at 37° C. for 2 hours in the dark.
# On FDSS7000EX (Hamamatsu Photonics), a fluorescence measuring instrument, 10 μL of 4× ligand solution containing glutamate and glycine made in 1.8 mM Ca^2+-HBSS were added to each well. The fluorescent signals were collected before and after the addition of ligands for a total of 2 minutes. The data were converted to a ratio of the peak fluorescence to the fluorescence at the beginning of the measurement.
# Each data point was measured in duplicates. Dose response curves were used to identify IC50 and maximal inhibition values. IC50 represents the concentration in μM of compound at which there is a half-maximal compound effect. Maximal inhibition of a compound is expressed as a percent of the highest inhibition of activity over a no compound control.
# hERG = hERG (Homo sapiens (Human), UniProt Q12809); experiment: hERG Qpatch assay; assay type: cell-based; details: hERG expressing CHO-K1 cells, automated patch clamp, tail current
# Protocol: This assay was performed by the method described in Skepper et al., J. Med. Chem. 2020, 63, 7773-7816:
# hERG expressing cell lines were produced in-house at Novartis using CHO-K1 T-Rex inducible plasmid system (Invitrogen) as described previously (Cao et al., Assay Drug Dev. Technol. 2010, 8, 766-780). Cell lines were maintained in Ham's F12 nutrient mixture containing 10% FBS, blasticidin ([…]; InvivoGen), hygromycin B ([…]; InvivoGen), Zeocin ([…], Invitrogen), and neomycin ([…], Invitrogen) using SelecT automated cell culture system (TAP Biosystems, Cambridge, U.K.). hERG and hCav1.2 channels expression was induced with tetracycline (0.25-1 μg/mL, Invitrogen) at least 24 h prior to the experiment.
# hERG currents were recorded using the Qpatch automated patch clamp systems (Sophion Bioscience Inc., North Brunswick, NJ) in the whole (single) cell configuration. hERG expressing CHO-K1 cells were harvested with Detachin (Genlantis) and stored in the modified serum-free SFM-2 media (Life Technologies) at room temperature. The extracellular solution contained (in mM) NaCl (145), KCl (4), MgCl2 (1), CaCl2 (2), and HEPES (10), pH 7.4, with NaOH. The intracellular solution contained KCl (135), MgCl2 (1.75), CaCl2 (5.4), EGTA (10), K2-ATP (4), and HEPES (10), pH 7.2, with KOH. After whole cell configuration was achieved, the cell was held at −90 mV, and a 0.1 s pulse to −50 mV was delivered to measure the leaking current, which was subtracted from the tail current online. Then the cell was depolarized to +20 mV for 4 s (prepulse), followed by a 4 s test pulse to −50 mV to reveal the hERG tail current. To monitor changes in the current amplitude, this voltage protocol was repeatedly applied every 20 s. Test compounds were first diluted in DMSO for six dose-response experiments and then dissolved in the extracellular solution using Freedom EVO liquid handling robotic system (Tecan, Männedorf, Switzerland). The final DMSO concentration in samples was 0.3% v/v. Amitriptyline (Sigma) was tested as a positive control. Data were analyzed using in-house developed MatLab-based program (MathWorks, Natick, MA).
# Chain of NR2B (Q00960 27-1482, other chains not shown): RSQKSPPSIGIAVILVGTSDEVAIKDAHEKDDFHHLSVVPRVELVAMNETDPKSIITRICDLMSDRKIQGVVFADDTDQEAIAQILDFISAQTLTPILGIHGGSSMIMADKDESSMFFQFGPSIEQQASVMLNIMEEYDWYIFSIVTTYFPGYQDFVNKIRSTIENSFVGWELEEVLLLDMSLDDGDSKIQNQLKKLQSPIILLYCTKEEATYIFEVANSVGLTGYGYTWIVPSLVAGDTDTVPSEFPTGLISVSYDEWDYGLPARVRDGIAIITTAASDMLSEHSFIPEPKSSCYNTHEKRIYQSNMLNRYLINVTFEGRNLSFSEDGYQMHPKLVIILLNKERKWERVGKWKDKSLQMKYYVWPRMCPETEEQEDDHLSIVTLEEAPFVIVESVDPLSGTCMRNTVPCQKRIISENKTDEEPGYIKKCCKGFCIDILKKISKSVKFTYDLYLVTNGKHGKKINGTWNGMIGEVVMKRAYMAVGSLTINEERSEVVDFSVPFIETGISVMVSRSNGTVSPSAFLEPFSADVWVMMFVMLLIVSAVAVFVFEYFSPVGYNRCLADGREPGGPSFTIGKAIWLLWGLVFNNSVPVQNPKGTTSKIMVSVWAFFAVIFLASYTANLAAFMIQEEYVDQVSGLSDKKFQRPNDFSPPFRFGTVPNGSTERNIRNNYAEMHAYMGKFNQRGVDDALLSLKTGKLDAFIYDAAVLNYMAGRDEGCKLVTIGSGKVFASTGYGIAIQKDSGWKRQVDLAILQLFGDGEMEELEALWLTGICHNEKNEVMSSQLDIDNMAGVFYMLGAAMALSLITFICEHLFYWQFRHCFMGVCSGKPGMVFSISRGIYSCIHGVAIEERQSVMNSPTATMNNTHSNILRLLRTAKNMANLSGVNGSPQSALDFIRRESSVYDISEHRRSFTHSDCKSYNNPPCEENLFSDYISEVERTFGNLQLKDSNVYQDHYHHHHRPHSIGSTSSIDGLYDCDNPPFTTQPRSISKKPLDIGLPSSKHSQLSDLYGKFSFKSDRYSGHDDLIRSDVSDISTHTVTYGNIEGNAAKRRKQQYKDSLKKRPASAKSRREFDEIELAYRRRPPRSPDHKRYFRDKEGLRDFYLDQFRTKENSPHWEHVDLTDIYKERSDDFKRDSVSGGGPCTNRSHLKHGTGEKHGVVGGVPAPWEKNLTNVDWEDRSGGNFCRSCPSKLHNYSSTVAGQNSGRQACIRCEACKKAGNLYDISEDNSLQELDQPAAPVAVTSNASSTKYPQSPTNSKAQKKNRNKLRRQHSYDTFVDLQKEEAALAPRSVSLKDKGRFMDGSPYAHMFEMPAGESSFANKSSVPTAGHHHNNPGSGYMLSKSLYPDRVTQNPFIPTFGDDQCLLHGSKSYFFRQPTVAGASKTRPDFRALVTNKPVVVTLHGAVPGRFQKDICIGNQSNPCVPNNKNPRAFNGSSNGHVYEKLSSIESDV
# Chain of hERG (Q12809 whole entry): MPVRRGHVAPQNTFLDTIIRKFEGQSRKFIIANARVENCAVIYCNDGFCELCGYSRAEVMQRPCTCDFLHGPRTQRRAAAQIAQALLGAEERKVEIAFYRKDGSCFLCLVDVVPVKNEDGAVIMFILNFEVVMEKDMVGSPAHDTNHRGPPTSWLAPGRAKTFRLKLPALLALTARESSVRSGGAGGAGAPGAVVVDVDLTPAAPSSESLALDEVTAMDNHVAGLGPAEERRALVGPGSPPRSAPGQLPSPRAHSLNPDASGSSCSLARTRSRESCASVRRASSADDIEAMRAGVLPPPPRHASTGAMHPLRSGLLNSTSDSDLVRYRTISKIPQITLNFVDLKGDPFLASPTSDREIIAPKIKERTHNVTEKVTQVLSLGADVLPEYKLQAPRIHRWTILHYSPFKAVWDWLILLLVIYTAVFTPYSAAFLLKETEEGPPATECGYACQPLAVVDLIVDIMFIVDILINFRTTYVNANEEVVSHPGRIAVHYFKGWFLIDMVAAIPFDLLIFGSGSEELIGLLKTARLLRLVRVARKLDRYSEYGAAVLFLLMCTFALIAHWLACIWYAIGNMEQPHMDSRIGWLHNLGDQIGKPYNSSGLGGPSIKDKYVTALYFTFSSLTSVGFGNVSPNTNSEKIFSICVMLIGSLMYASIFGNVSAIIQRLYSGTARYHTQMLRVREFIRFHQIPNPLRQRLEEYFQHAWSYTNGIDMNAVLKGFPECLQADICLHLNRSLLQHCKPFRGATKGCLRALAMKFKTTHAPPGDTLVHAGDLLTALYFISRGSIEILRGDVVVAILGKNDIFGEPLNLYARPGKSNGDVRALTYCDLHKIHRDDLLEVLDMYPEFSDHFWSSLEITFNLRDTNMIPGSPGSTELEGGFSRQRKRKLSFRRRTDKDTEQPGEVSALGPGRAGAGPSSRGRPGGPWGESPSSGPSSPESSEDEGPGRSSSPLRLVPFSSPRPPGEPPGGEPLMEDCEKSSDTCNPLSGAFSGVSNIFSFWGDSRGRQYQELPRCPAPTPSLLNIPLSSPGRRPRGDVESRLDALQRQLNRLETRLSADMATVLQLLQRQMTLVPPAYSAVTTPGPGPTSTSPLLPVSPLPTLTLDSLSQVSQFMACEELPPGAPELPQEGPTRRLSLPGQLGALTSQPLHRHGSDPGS
IC50 (NR2B) [nM],Structure (SMILES),IC50 (hERG) [nM]
900,"Oc1c(F)cc(C(O)CN2C[C@@H]3C[C@@H](Oc4ccccc4)[C@@H](O)[C@]3(O)C2)cc1F (single isomer, unassigned) [Example 5C]",
950,"Oc1ccc(C(O)CN2C[C@@H]3C[C@@H](Oc4ccccc4F)[C@@H](O)[C@]3(O)C2)nc1 (single isomer, unassigned) [Example 2D]",
3.2,"Oc1ccc(C(O)CN2C[C@H]3C[C@H](Oc4ccccc4)C[C@@]3(O)C2)nc1 (single isomer, unassigned) [Example 7D]",19000
> 10000,Oc1ccc(C(O)CN2C[C@@H]3C[C@@H](Oc4ccccc4)[C@@H](O)[C@]3(O)C2)nc1F (some centres unmarked) [Example 3A],
6,"Oc1c(F)cc([C@H](O)CN2C[C@H]3C[C@H](Oc4ccccc4)C[C@@]3(O)C2)cc1F [Example 10D, (3aS,5S,6aR)-2-((S)-2-(3,5-difluoro-4-hydroxyphenyl)-2-hydroxyethyl)-5-phenoxyhexahydrocyclopenta[c]pyrrol-3a(1H)-ol]",25000
11,"Oc1ccc(C(O)CN2C[C@H]3C[C@H](Oc4ccccc4F)[C@H](O)[C@@]3(O)C2)nc1 (single isomer, unassigned) [Example 2A]",
18,Oc1ccc(CCN2C[C@H]3C[C@H](Oc4ccc(F)cc4F)C[C@@]3(O)C2)nc1 [Example 19],
35,"Oc1ccc(C(O)CN2C[C@H]3C[C@H](Oc4ccccc4)[C@H](O)[C@@]3(O)C2)nc1Cl (single isomer, unassigned) [Example 4D]",
2.4,"Oc1ccc(C(O)CN2C[C@H]3C[C@H](Oc4ccccc4)C[C@@]3(O)C2)nc1 (single isomer, unassigned) [Example 7C]",28000
,"Oc1ccc(C(O)CN2C[C@H]3C[C@H](Oc4ccccc4)C[C@H]3C2)nc1 (single isomer, unassigned) [Table 3 from WO 2016/049165 (isomer 1), reference compound]",2000
2.2,"Oc1ccc(C(O)CN2C[C@H]3C[C@H](Oc4ccccc4F)[C@H](O)[C@@]3(O)C2)nc1 (single isomer, unassigned) [Example 2B]",
,"Oc1c(F)cc(C(O)CN2C[C@H]3C[C@H](Oc4ccccc4)C[C@H]3C2)cc1F (mixture of isomers) [Mixture of two isomers at benzylic position, reference compound]",2800
28,Oc1c(F)cc(C(O)CN2C[C@H]3C[C@H](Oc4ccccc4)[C@H](O)[C@@]3(O)C2)cc1F (some centres unmarked) [Example 5B],
770,"Oc1ccc(C(O)CN2C[C@@H]3C[C@@H](Oc4ccccc4F)[C@@H](O)[C@]3(O)C2)nc1 (single isomer, unassigned) [Example 2C]",
14,Oc1c(F)cc([C@@H](O)CN2C[C@H]3C[C@H](Oc4ccccc4)C[C@@]3(O)C2)cc1F [Example 10C],22000
> 10000,Oc1ccc(C(O)CN2C[C@@H]3C[C@@H](Oc4ccccc4)[C@@H](O)[C@]3(O)C2)nc1Cl (some centres unmarked) [Example 4A],
820,Oc1ccc(CCN2C[C@H]3C[C@H](Oc4cccnc4F)C[C@@]3(O)C2)nc1 [Example 20],
3700,"Oc1c(F)cc(C(O)CN2C[C@@H]3C[C@@H](Oc4ccccc4)[C@@H](O)[C@]3(O)C2)cc1F (single isomer, unassigned) [Example 5D]",
0.74,"Oc1ccc(C(O)CN2C[C@H]3C[C@H](Oc4ccccc4F)C[C@@]3(O)C2)nc1 (single isomer, unassigned) [Example 1B]",14000
1.1,"Oc1ccc(C(O)CN2C[C@H]3C[C@H](Oc4ccccc4F)C[C@@]3(O)C2)nc1 (single isomer, unassigned) [Example 1C]",22000
24,Oc1ccc(C(O)CN2C[C@H]3C[C@H](Oc4ccccc4)[C@H](O)[C@@]3(O)C2)nc1F (some centres unmarked) [Example 3D],
31,"Oc1ccc(C(O)CN2C[C@H]3C[C@H](Oc4ccccc4)[C@H](O)[C@@]3(O)C2)nc1Cl (single isomer, unassigned) [Example 4C]",
,"Oc1ccc(C(O)CN2C[C@H]3C[C@H](Oc4ccccc4)C[C@H]3C2)nc1 (single isomer, unassigned) [Table 3 of WO 2016/049165 (isomer 2), reference compound]",2700
